Reference: patent US11083199B2, “Heterocycle derivatives as pesticides” (Bayer Aktiengesellschaft, priority 2017, dated 2021)

What was measured:
Format in all cases: in vivo
[1] = tested on: Spodoptera frugiperda; test: Spodoptera frugiperda spray test; settings: foliar, 168 h, application rate 100 g/ha, maize leaf discs, caterpillars, after 7 days, read-out: efficacy
Outline: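 Maize leaf discs sprayed with compound formulated in solvent plus water with 1000 ppm emulsifier, dried, then infested with fall armyworm caterpillars. Mortality scored after 7 days as % efficacy (100% = all caterpillars killed, 0% = none).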

[2] = tested on: Musca domestica; test: Musca domestica test; settings: application rate 100 ppm; adult houseflies, kill after 2 days
Method: Solvent: dimethyl sulfoxide To produce a suitable active ingredient formulation, 10 mg of active ingredient are mixed with 0.5 ml of dimethyl sulfoxide, and the concentrate is diluted with water to the desired concentration. Vessels containing a sponge treated with sugar solution and the desired concentration of active ingredient formulation are populated with 10 adult houseflies (Musca domestica). After 2 days, the kill in % is determined. 100% means that all of the flies have been killed; 0% means that none of the flies have been killed.

[3] = tested on: Phaedon cochleariae; test: Phaedon cochleariae spray test; settings: 168 h, application rate 100 g/ha, larvae, after 7 days, read-out: efficacy
Outline: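 Chinese cabbage leaf discs sprayed with compound formulated in solvent and water containing 1000 ppm emulsifier. Once dry, discs were populated with mustard beetle larvae. Percent kill scored after 7 days, 100% meaning all larvae dead and 0% none.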

[4] = tested on: Myzus persicae; test: Myzus persicae oral test; settings: 120 h, application rate 4 ppm, after 5 days, read-out: efficacy
Outline: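 Compound formulation diluted with IPL41 insect medium (33%+15% sugar) and sealed under parafilm; mixed-population aphids feed through the membrane from a second plate. Mortality scored after 5 days as % efficacy (100% = all aphids killed, 0% = none).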

[5] = tested on: Myzus persicae; test: Myzus persicae spray test; settings: foliar, 120 h, application rate 100 g/ha, Chinese cabbage leaf discs, after 5 days, read-out: efficacy
Outline: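 Chinese cabbage leaf discs infested with all aphid stages sprayed with compound formulated in emulsifier-containing water (1000 ppm emulsifier). Efficacy (% aphids killed; 100% = all killed) determined after 5 days.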

[6] = tested on: Ctenocephalides felis; test: Ctenocephalides felis in vitro contact test with adult cat fleas; settings: application rate 5 μg/cm^2 (=500 g/ha), adult cat fleas dead or moribund after 48 h, read-out: efficacy
Method: For the coating of the test tubes, 9 mg of active ingredient are first dissolved in 1 ml of acetone p.a. and then diluted to the desired concentration with acetone p.a. 250 μl of the solution are distributed homogeneously on the inner walls and the base of a 25 ml glass tube by turning and rocking on an orbital shaker (rocking rotation at 30 rpm for 2 h). With 900 ppm of active ingredient solution and internal surface area 44.7 cm^2, given homogeneous distribution, an area-based dose of 5 μg/cm^2 is achieved. After the solvent has evaporated off, the tubes are populated with 5-10 adult cat fleas (Ctenocephalides felis), sealed with a perforated plastic lid and incubated in a horizontal position at room temperature and ambient humidity. After 48 h, efficacy is determined. To this end, the tubes are stood upright and the fleas are knocked to the base of the tube. Fleas which remain motionless at the base or move in an uncoordinated manner are considered to be dead or moribund. […] 100% efficacy means that all the fleas were dead or moribund. 0% efficacy means that no fleas were harmed.

[7] = tested on: Lucilia cuprina; test: Lucilia cuprina test; settings: 48 h, application rate 100 ppm, L1 larvae, kill after 2 days, read-out: efficacy
Method: Solvent: dimethyl sulfoxide To produce a suitable active ingredient formulation, 10 mg of active ingredient are mixed with 0.5 ml of dimethyl sulfoxide, and the concentrate is diluted with water to the desired concentration. About 20 L1 larvae of the Australian sheep blowfly (Lucilia cuprina) are transferred into a test vessel containing minced horsemeat and the active ingredient formulation of the desired concentration. After 2 days, the kill in % is determined. 100% means that all the larvae have been killed; 0% means that no larvae have been killed.

[8] = tested on: Ctenocephalides felis; test: Ctenocephalides felis oral test; settings: 48 h, application rate 100 ppm in citrated cattle blood, kill after 2 days, read-out: efficacy
Method: Solvent: dimethyl sulfoxide To produce a suitable active ingredient formulation, 10 mg of active ingredient are mixed with 0.5 ml of dimethyl sulfoxide. Dilution with citrated cattle blood gives the desired concentration. About 20 unfed adult cat fleas (Ctenocephalides felis) are placed into a chamber which is closed at the top and bottom with gauze. A metal cylinder whose bottom end is closed with parafilm is placed onto the chamber. The cylinder contains the blood/active ingredient formulation, which can be imbibed by the fleas through the parafilm membrane. After 2 days, the kill in % is determined. 100% means that all of the fleas have been killed; 0% means that none of the fleas have been killed.

[9] = tested on: Boophilus microplus; test: Boophilus microplus injection test; settings: application rate 20 μg/animal, injected; laying of fertile eggs assessed after 7 days
Method: Solvent: dimethyl sulfoxide To produce a suitable active ingredient formulation, 10 mg of active ingredient are mixed with 0.5 ml of solvent and the concentrate is diluted to the desired concentration with solvent. 1 μl of the active ingredient solution is injected into the abdomen of 5 engorged adult female cattle ticks (Boophilus microplus). The animals are transferred into dishes and kept in a climate-controlled room. Efficacy is assessed after 7 days by laying of fertile eggs. Eggs which are not visibly fertile are stored in a climate-controlled cabinet until the larvae hatch after about 42 days. An efficacy of 100% means that none of the ticks has laid any fertile eggs; 0% means that all the eggs are fertile.

[10] = tested on: Tetranychus urticae; test: Tetranychus urticae spray test, OP-resistant; settings: foliar, 144 h, bean leaf discs, after 6 days, read-out: efficacy
Method: [table] To produce a suitable active ingredient formulation, 1 part by weight of active ingredient is dissolved with the specified parts by weight of solvent and made up to the desired concentration with water containing an emulsifier concentration of 1000 ppm. To produce further test concentrations, the formulation is diluted with emulsifier-containing water. Discs of bean leaves (Phaseolus vulgaris) infested with all stages of the greenhouse red spider mite (Tetranychus urticae) are sprayed with an active ingredient formulation of the desired concentration. After 6 days, the efficacy in % is determined. 100% means that all the spider mites have been killed; 0% means that no spider mites have been killed.

CCS(=O)(=O)c1c(-c2nc3cc(C(F)(F)F)ncc3n2C)nc(-c2ccc(Cl)cc2)n1C [Example I-005]
pest or weed control at 100 g/ha [1]: 100%
efficacy [2]: 100%
pest or weed control at 100 g/ha [3]: 100%
pest or weed control at 4 ppm [4]: 100%
pest or weed control at 100 g/ha [5]: 90%
pest or weed control at 5 µg/cm2, 500 g/ha [6]: 100%
pest or weed control at 100 ppm [7]: 100%
pest or weed control at 100 ppm [8]: 100%

CCn1c(-c2ccccc2)nc(-c2nc3cc(C(F)(F)F)ncc3n2C)c1S(=O)(=O)CC [Example I-009]
efficacy [2]: 80%
pest or weed control at 4 ppm [4]: 100%
pest or weed control at 100 g/ha [5]: 90%
pest or weed control at 5 µg/cm2, 500 g/ha [6]: 100%
pest or weed control at 100 ppm [7]: 100%
pest or weed control at 100 ppm [8]: 95%

CCS(=O)(=O)c1c(-c2nc3cc(C(F)(F)F)ncc3n2C)nc(-c2cccc(Cl)n2)n1C [Example I-014, 2-[2-(6-Chloropyridin-2-yl)-5-(ethylsulfonyl)-1-methyl-1H-imidazol-4-yl]-3-methyl-6-(trifluoromethyl)-3H-imidazo[4,5-c]pyridine]
pest or weed control at 100 g/ha [1]: 100%
efficacy [2]: 80%
pest or weed control at 100 g/ha [3]: 100%
pest or weed control at 4 ppm [4]: 100%
pest or weed control at 100 g/ha [5]: 100%
pest or weed control at 5 µg/cm2, 500 g/ha [6]: 100%
pest or weed control at 100 ppm [7]: 100%
pest or weed control at 100 ppm [8]: 100%

CCS(=O)(=O)c1c(-c2nc3cc(C(F)(F)F)ncc3n2C)nc(-c2cccnc2)n1C [Example I-016]
pest or weed control at 4 ppm [4]: 100%
pest or weed control at 100 g/ha [5]: 100%
pest or weed control at 100 ppm [7]: 100%
efficacy [9]: 90%

CCS(=O)(=O)c1c(-c2nc3cc(C(F)(F)F)ncc3n2C)nc(-c2cncc(F)c2)n1C [Example I-018]
pest or weed control at 100 g/ha [1]: 83%
efficacy [2]: 80%
pest or weed control at 100 g/ha [3]: 100%
pest or weed control at 4 ppm [4]: 100%
pest or weed control at 100 g/ha [5]: 100%
pest or weed control at 5 µg/cm2, 500 g/ha [6]: 100%
pest or weed control at 100 ppm [7]: 100%
pest or weed control at 100 ppm [8]: 100%

CCS(=O)(=O)c1c(-c2nc3cc(C(F)(F)F)ncc3n2C)nc(-c2ccc(F)nc2)n1C [Example I-019, 2-[5-(Ethylsulfonyl)-2-(6-fluoropyridin-3-yl)-1-methyl-1H-imidazol-4-yl]-3-methyl-6-(trifluoromethyl)-3H-imidazo[4,5-c]pyridine]
pest or weed control at 100 g/ha [1]: 100%
efficacy [2]: 100%
pest or weed control at 100 g/ha [3]: 100%
pest or weed control at 4 ppm [4]: 100%
pest or weed control at 100 g/ha [5]: 100%
pest or weed control at 5 µg/cm2, 500 g/ha [6]: 100%
pest or weed control at 100 ppm [7]: 100%
pest or weed control at 100 ppm [8]: 95%

CCS(=O)(=O)c1c(-c2nc3cc(C(F)(F)F)ncc3n2C)nc(-c2cc(Cl)cs2)n1C [Example I-033]
pest or weed control at 100 g/ha [1]: 100%
efficacy [2]: 90%
pest or weed control at 4 ppm [4]: 100%
pest or weed control at 100 g/ha [5]: 90%
pest or weed control at 100 ppm [7]: 100%
pest or weed control at 100 ppm [8]: 100%

CCNC(=O)c1nc(-c2nc3cc(C(F)(F)F)ncc3n2C)c(S(=O)(=O)CC)n1C [Example I-041]
pest or weed control at 100 g/ha [3]: 100%
pest or weed control at 4 ppm [4]: 100%
pest or weed control at 100 g/ha [5]: 90%
efficacy [9]: 100%

CCS(=O)(=O)c1c(-c2nc3cc(C(F)(F)F)ncc3n2C)nc(-c2ccn[nH]2)n1C [Example I-049]
efficacy [2]: 80%
pest or weed control at 100 g/ha [3]: 100%
pest or weed control at 4 ppm [4]: 100%
pest or weed control at 20 g/ha ([10]; application rate 20 g/ha): 90%
pest or weed control at 100 g/ha ([10]; application rate 100 g/ha): 90%
pest or weed control at 100 g/ha [5]: 90%
pest or weed control at 100 ppm [7]: 100%
pest or weed control at 100 ppm [8]: 80%
